B1: PEGPH20: PEGylated Recombinant Human Hyaluronidase, clinical-grade recombinant hyaluronidase (provided by Halozyme Therapeutics) (protein, UniProt P38567 36-490, looked up)
Hyaluronidase PH-20: LNFRAPPVIPNVPFLWAWNAPSEFCLGKFDEPLDMSLFSFIGSPRINATGQGVTIFYVDRLGYYPYIDSITGVTVNGGIPQKISLQDHLDKAKKDITFYMPVDNLGMAVIDWEEWRPTWARNWKPKDVYKNRSIELVQQQNVQLSLTEATEKAKQEFEKAGKDFLVETIKLGKLLRPNHLWGYYLFPDCYNHHYKKPGYNGSCFNVEIKRNDDLSWLWNESTALYPSIYLNTQQSPVAATLYVRNRVREAIRVSKIPDAKSPLPVFAYTRIVFTDQVLKFLSQDELVYTFGETVALGASGIVIWGTLSIMRSMKSCLLLDNYMETILNPYIINVTLAAKMCSQVLCQEQGVCIRKNWNSSDYLHLNPDNFAIQLEKGGKFTVRGKPTLEDLEQFSEKFYCSCYSTLSCKEKADVKDTDAVDVCIADGVCIDAFLKPPMETEEPQIFYNASPSTLS
modifications: PEGylated

Columns and labels:
WPMY-1 cells [1] = experiment: ATAC-seq chromatin accessibility in WPMY-1 cells; assay type: cell-based, human; conditions: lactate-treated WPMY-1 cells, 48 h
Method: The cell pellet was resuspended in 50 μl lysis buffer and then spun down 500×g for 10 minutes at 4° C. The nuclei pellet was resuspended into 50 μl transposition reaction mixture containing Tn5 transposase from Nextera DNA Library Prep Kit (Illumina) and incubated at 37° C. for 30 minutes. Then the transposase-associated DNA was purified using MinElute PCR purification kit (QIAGEN). To amplify the library, the DNA was first amplified for 5 cycles using indexing primer from Nextera kit and NEBNext High-Fidelity 2×PCR master mix. To reduce the PCR amplification bias, 5 μl of amplified DNA after the first 5 cycles was used to do qPCR of 20 cycles to decide the number of cycles for the second round of PCR. Usually, the maximum cycle of the second round of PCR is 5 cycles. Then the total amplified DNA was size selected to fragments less than 800 bp using SPRI beads. Quantification of the ATAC-seq library was done with QuBit. The size of the pooled library was examined by TapeStation. Barcoded ATAC-seq libraries were pooled and paired end sequenced (sX75) on the Illumina NextSeq 500 using the High output V2.5 kit (Illumina Inc., San Diego, CA).
Peaks were annotated with ChipSeeker R package. […].

AP-1 = experiment: AP-1-driven luciferase reporter in WPMY-1 cells; assay type: cell-based, human; conditions: lactate 48 h
WPMY-1 cells [2] = experiment: Intracellular NAD levels in WPMY-1 cells; assay type: cell-based, human; conditions: stromal fibroblasts treated with lactate vs untreated
Method: Quantification was carried out using the NAD/NADH quantification colorimetric kit (Cat. No. MAK037, Sigma) according to the manufacturer's protocol. At least three independent measurements were carried out.

PARP-1 = experiment: Poly(ADP-ribosyl)ation in WPMY-1 cells (immunoblot, immunoprecipitation); assay type: cell-based, human
Method: Cells for protein analysis were lysed in RIPA buffer (20 mM Tris-HCl, […], 2 mM EDTA, 1% Triton-X, 10% glycerol, 0.1% SDS, and 0.5% sodium deoxycholate) with phosphatase and protease inhibitors. For immunoprecipitations, cells were lysed in IP lysis buffer (100 mM NaCl, 25 mM Tris, 1% Triton-X, 10% glycerol, with phosphatase and protease inhibitors) and immunoprecipitated with 25 μl of 50% slurry of protein […] beads (Bioworld). Immunoprecipitates were washed three times with lysis buffer, once with high salt (500 mM NaCl), and once more with lysis buffer. Protein concentration in lysates was determined by using Protein Assay Kit (Bio-Rad). Cell extracts and immunoprecipitated proteins were denatured, subjected to SDS-PAGE, transferred to PVDF membranes (GE Healthcare). After blocking with 5% nonfat dry milk in Tris-buffered saline and 0.1% Tween (TBS-T), the membranes were incubated with the specific antibodies (as listed in Key Resources Table) overnight at 4° C. After 2 hours incubation with the appropriate horseradish peroxidase-conjugated antibodies, the immune complexes were detected by chemiluminescence (Thermo Scientific) or Near-infrared fluorescence (LI-COR).

PC3 cells [3] = experiment: Trans-well migration and invasion of PC3 cells co-cultured with pre-treated WPMY-1 cells; assay type: cell-based, human; conditions: Olaparib 10 μM + PEGPH20 2.5 μg/ml, basal and ADT
Method: For co-culture migration and invasion assays, 8×10^4 WPMY-1 cells were plated onto the lower chamber of a 24 well plate in DMEN containing 10% FBS (basal conditions) or 10% charcoal stripped FBS (ADT conditions) and vehicle (DMSO) or Olaparib 10 μM or Olaparib 10 μM+PEGPH20 2.5 μg/ml for 48 hours. 5×10^4 PC3 were seeded in a transwell chamber (Corning Biocoat control inserts) or in a transwell invasion chamber (Corning BioCoat Matrigel Invasion Chambers), both with 8 μm membrane. PC3 were allowed to migrate or invade for 20 hours at 37° C., 5% CO2. Cells were fixed in cold methanol and stained with crystal violet.

PC3 cells [4] = experiment: Click-iT EdU proliferation of PC3 cells treated with CM from WPMY-1 cells; assay type: cell-based, human; conditions: Olaparib 10 μM + PEGPH20 2.5 μg/ml or CM incubation with Galunisertib 10 μM
Method: WPMY-1 cells were cultured in DMEN containing 10% FBS (basal conditions) or 10% charcoal stripped FBS (ADT conditions), then the cells were treated with vehicle (DMSO), Olaparib 10 μM, Olaparib 10 μM+PEGPH20 2.5 μg/ml for 96 hours, refreshing media and stimuli at 48 hours, conditioned media (CM) was generated by collecting supernatant on day 4. PC3 cells were seeded in a black-walled well (Thermo Fisher) and serum starved overnight. CM from WPMY-1 cells was added to PC3 for 24 h. PC3 were exposed to EdU incorporation for the last 2 hours. Proliferating cells were detected using Click-iT EdU Alexa fluor 488 (Thermo Fisher) following the manufacturer's instructions. Pictures were taken using EVOS M5000 Imaging System and EdU positive were measured using Fiji (Schindelin et al., 2012).

PC3 + WPMY-1 tumors = experiment: Subcutaneous xenograft co-implantation of PC3 and WPMY-1 cells in NSG mice; assay type: in vivo, mouse; conditions: Olaparib 40 mg/Kg + PEGPH20 0.0375 mg/Kg, twice a week, 2 weeks
Method: For mouse xenografts using PC3 PCa cells and sgC or sgAP-1 WPMY-1 stromal cells. 7 weeks old NSG mice were surgical castrated and let androgen levels drop for 10 days. Cells were trypsinized washed two times in PBS and resuspend in DMEN. 1×10^6 PC3 and 1×10^6 sgC or sgAP1-A WPMY-1 for each mouse were resuspended in 100 μl DMEM: Matrigel (1:1) and injected subcutaneously into both flanks of immunocompromised NSG mice (PC3+sgC WPMY-1 n=4; PC3+sgAP-1 WPMY-1 n=4). Tumors were allowed to grow for 1 month. Mice were euthanized and tumors were collected and analyzed histologically. For Olaparib treatment in mouse xenografts. PC3 PCa cells and WPMY-1 stromal cells were trypsinized washed two times in PBS and resuspend in DMEN. 1×10^6 PC3 and 1×10^6 WPMY-1 for each mouse were resuspended in 100 μl DMEM: Matrigel (1:1) and injected subcutaneously into both flanks of immunocompromised NSG mice. Tumors were allowed to grow for 14 days, and mouse were randomly divided to receive vehicle, n=10, Olaparib (40 mg/kg, 2 days each week, i.p.), n=10 or Olaparib (40 mg/kg, 2 days each week, i.p.)+_PEGPH20 (0.0375 mg/Kg, 2 days each week, retroorbital injection) n=10. Tumors were measured twice a week. Mice were euthanized 14 days after the initiation of the treatment and tumors were collected and analyzed histologically. For Olaparib treatment in mice, 13 weeks-old male TRAMP^+, n=18, were randomly distributed to receive vehicle, n=9, or Olaparib (40 mg/kg/, 5 days each week, i.p.), n=9. Mice were euthanized 1 month after the initiation of the treatment. Prostate and other organs were collected and analyzed histologically.
Tissues from indicated mice were isolated, fixed in zinc buffered formalin overnight at 4° C., dehydrated, and embedded in paraffin. Sections (5 μm) were stained with hematoxylin and eosin (H&E). For immunohistochemistry, sections were deparaffinized, rehydrated, and then treated for antigen retrieval. […] Stained sections were analyzed with a Zeiss light microscope supplemented with Zen 3.3 Bule edition software.

[5] = tested on: hyaluronan (HA) in WPMY-1 cells; experiment: Immunofluorescence for HABP (HA deposition) in WPMY-1 cells; assay type: cell-based, human; conditions: Olaparib 10 μM + PEGPH20 2.5 μg/ml, 96 h, basal and ADT
Method: WPMY-1 cells were seeded in coverslides and cultured in DMEN containing 10% FBS (basal conditions) or 10% charcoal stripped FBS (ADT conditions), then the cells were treated with vehicle (DMSO), Olaparib 10 μM, Olaparib 10 μM+PEGPH20 2.5 μg/ml for 96 hours, refreshing media and stimuli at 48 hours. Cells were fixed in PFA 4% for 20 minutes at room temperature, permeabilize and blocked following abcam's immunofluorescence protocol. Then, cells were incubated overnight with Hyaluronic acid binding protein (HABP) at 4° C. Cells were incubated with Alexa conjugated streptavidin and mounted in slides with mowiol. Pictures were taken by Zeiss LSM 710 NLO Confocal Microscope.

[6] = tested on: metastatic pancreas cancer; conditions: cited from earlier work

Molecule | chromatin accessibility (WPMY-1 cells [1]) | AP-1-driven luciferase reporter activity (AP-1) | NAD+ levels (WPMY-1 cells [2]) | poly(ADP-ribosyl)ation of c-JUN and c-FOS (PARP-1; lactate 48 h, immunoprecipitation) | total poly(ADP-ribosyl)ation levels (PARP-1; lactate-treated WPMY-1 cells) | Olaparib-enhanced migration of PC3 cells (PC3 cells [3]) | Olaparib-induced proliferation (EdU) (PC3 cells [4]) | anti-tumor activity of the combination (tumor volume) (PC3 + WPMY-1 tumors) | HA deposition in response to Olaparib [5] | primary endpoint of phase 3 trial [6]
CC(O)C(=O)O (stereo not shown) [lactate] | widespread decrease in chromatin accessibility | repressed an AP-1-driven luciferase reporter | lower than in untreated cells | impaired the poly(ADP-ribosyl) ation of c-JUN and c-FOS | reduced total poly(ADP-ribosyl) ation levels |  |  |  |  | 
B1 |  |  |  |  |  | completely blocked the enhanced migration of PC3 cells | blocked Olaparib-induced proliferation in stromal cells | enhanced Olaparib anti-tumor activity | efficiently degraded HA deposition | failed to meet the primary endpoint
